These results are taken from US8106055B2, “Substituted amide compounds” (Gruenenthal GmbH, priority 2007, dated 2012).

Read-outs that look alike come from different tables or passages of the source.

Experiment [1] deals with T1, serotonin (5-HT) reuptake (Rattus norvegicus, UniProt P31652).
T1 construct: synaptosomes are freshly isolated from areas of the rat brain; from tissue; host or cells: rat brain synaptosomes (P2 fraction)
Put plainly: Inhibition of serotonin (5HT) reuptake in synaptosomes from rat brain. The class given is biochemical. As to the method:
Binding data of the compounds on the μ opioid receptor and data on the inhibition of reuptake of serotonin (5-HT) are given in Table 1. The data for the μ receptor were measured at a test concentration of 1 μM, and those for the serotonin reuptake at 10 μM. The values are stated in % inhibition.
Inhibition of Serotonin (5HT) Reuptake
In order to be able to carry out these in vitro studies, synaptosomes are freshly isolated from areas of the rat brain. In each case a so-called “P2” fraction prepared in accordance with the instructions of Gray and Whittaker (E. G. Gray and V. P. Whittaker (1962) J. Anat. 76, 79-88) is prepared. For the NA uptake, these vesicular particles are isolated from the hypothalamus of male rat brains.
A detailed description of the method can be found in the literature (M. Ch. Frink, H.-H. Hennies, W. Englberger, M. Haurand and B. Wilffert (1996) Arzneim.-Forsch./Drug Res. 46 (III), 11, 1029-1036).

The target of experiment [2] is T2, human bradykinin 1 receptor (B1R) (Homo sapiens, UniProt P46663).
T2 construct: expressed in transfected cells; host or cells: CHO K1 cells
T2 sequence (P46663 1-353): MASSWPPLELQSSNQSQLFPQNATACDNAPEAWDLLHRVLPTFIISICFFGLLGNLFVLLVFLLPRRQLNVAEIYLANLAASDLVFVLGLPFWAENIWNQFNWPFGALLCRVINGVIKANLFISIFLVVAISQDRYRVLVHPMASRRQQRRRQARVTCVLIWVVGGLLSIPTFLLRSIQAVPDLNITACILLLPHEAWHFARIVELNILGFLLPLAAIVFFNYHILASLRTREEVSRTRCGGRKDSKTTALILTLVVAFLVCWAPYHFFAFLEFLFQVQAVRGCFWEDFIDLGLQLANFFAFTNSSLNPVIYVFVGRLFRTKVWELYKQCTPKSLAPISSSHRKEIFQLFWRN
Description: Functional investigation on the human bradykinin 1 receptor (B1R), Ca2+ FLIPR assay in CHO K1 hB1R cells. The class given is cell-based. As to conditions: test substance 10 μM, Ca2+ FLIPR, CHO K1 hB1R cells; for inhibition at 10 µM: CHO-K1, B1R antagonism human, read-out: B1R Ant. h [10 μM] % Inhibition; for B1R Ant. h [10 μM] % Inhibition: B1R antagonism human. The method, boiled down: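 Cells were dye-loaded with Fluo-4 plus probenecid, then test substances added and Ca2+ influx compared with agonist control for % activation. After 10-20 min, EC80 agonist (Lys-Des-Arg9-bradykinin human; Des-Arg9-bradykinin rat) was applied; suppression gave % inhibition and IC50 values.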

The target of experiment [3] is T3, human μ opiate receptor (Homo sapiens, UniProt P35372).
T3 construct: purchased PerkinElmer Life Sciences, Zaventem, Belgium RB-HOM; host or cells: CHO-K1 cells (membrane preparation)
Description: Affinity for the human μ opiate receptor ([3H]-naloxone displacement, CHO-K1 receptor membrane preparation, SPA). The class given is binding. The method, boiled down:
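Scintillation proximity binding on human μ receptor membranes from CHO-K1 cells used 1 nmol/l [3H]-naloxone over 90 min at room temperature in 50 mmol/l Tris-HCl, 0.06% BSA. Percent inhibition was recorded at 1 μM.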

[4] abbreviates: test concentration of 10 μM, read-out: 5-HT (inhibition of reuptake of serotonin, % inhibition).
Where [5] appears, read: test concentration of 1 μM, read-out: μ (binding on the μ opioid receptor, % inhibition).
Setting [6] is: Table 2, test concentration 10 μM, read-out: 5-HT reuptake.
Where [7] appears, read: 1.5 h, Table 2, test concentration 1 μM, read-out: μ receptor.

T1 sequence (P31652 whole entry): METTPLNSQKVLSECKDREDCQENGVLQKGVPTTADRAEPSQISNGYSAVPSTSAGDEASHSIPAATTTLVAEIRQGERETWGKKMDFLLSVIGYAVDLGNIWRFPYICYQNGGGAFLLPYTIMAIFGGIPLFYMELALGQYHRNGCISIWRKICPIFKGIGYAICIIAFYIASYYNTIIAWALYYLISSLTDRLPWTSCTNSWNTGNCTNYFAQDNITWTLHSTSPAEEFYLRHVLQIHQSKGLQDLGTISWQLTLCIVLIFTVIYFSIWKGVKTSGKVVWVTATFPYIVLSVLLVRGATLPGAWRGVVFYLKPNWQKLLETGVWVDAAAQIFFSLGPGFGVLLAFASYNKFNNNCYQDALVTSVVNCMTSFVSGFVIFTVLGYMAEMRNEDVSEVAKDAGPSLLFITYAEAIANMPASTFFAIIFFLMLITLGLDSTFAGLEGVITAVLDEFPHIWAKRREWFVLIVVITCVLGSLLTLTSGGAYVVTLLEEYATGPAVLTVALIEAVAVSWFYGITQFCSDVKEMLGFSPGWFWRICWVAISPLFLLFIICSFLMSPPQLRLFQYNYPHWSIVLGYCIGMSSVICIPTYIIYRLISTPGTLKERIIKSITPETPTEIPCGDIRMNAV
T3 sequence (P35372 whole entry): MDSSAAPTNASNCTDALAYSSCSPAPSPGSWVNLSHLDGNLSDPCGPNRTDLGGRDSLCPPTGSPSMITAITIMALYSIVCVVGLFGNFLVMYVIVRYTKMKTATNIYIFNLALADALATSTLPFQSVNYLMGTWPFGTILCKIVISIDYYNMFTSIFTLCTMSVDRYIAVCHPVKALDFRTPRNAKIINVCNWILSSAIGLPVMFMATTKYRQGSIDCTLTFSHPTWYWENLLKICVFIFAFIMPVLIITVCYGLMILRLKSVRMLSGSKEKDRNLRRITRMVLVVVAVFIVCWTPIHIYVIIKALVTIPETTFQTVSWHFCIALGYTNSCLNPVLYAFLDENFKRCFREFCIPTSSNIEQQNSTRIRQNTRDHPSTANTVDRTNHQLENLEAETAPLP

Take `COc1cc(C)c(S(=O)(=O)N(C)CCOCC(=O)NCC2CCC(C(c3cccc(F)c3)N(C)C)CC2)c(C)c1C` (stereo not drawn) [Example 160, N-((4-((dimethylamino)(3-fluorophenyl)methyl)cyclohexyl)methyl)-2-(2-(4-methoxy-N,2,3,6-tetramethylphenylsulfonamido)ethoxy)acetamide]: the inhibition at 10 µM was 80% in experiment [1] (setting [4]) and 98% in experiment [2]. In addition, the inhibition at 1 µM in experiment [3] (setting [5]) stood at 88%.
Take `CN(C)C(c1ccccc1)C1CCC(NC(=O)COc2ccccc2N(C)S(=O)(=O)c2ccc(Cl)c(Cl)c2)CC1` (stereo not drawn) [Example 166, 2-(2-(3,4-dichloro-N-methylphenylsulfonamido)phenoxy)-N-(4-((dimethylamino)(phenyl)methyl)cyclohexyl)acetamide]: the inhibition at 10 µM came out at 91% in experiment [1] (setting [4]) and 74% in experiment [2]. Also, the inhibition at 1 µM in experiment [3] (setting [5]) amounted to 87%.
For `COc1ccc(S(=O)(=O)N2CCCCC2COCC(=O)NC2CCC(C(c3ccccc3)N(C)C)CC2)c(OC)c1` (stereo not drawn) [Example 187, 2-((1-(2,4-dimethoxyphenylsulfonyl)piperidin-2-yl)methoxy)-N-(4-((dimethylamino)(phenyl)methyl)cyclohexyl)acetamide] the same measures were 81%, -6% and 79%.
For `COc1ccc(S(=O)(=O)N2CCCCC2COCC(=O)NC2CCC(C(c3ccccc3)N(C)C)CC2)cc1OC` (stereo not drawn) [Example 198, 2-((1-(3,4-dimethoxyphenylsulfonyl)piperidin-2-yl)methoxy)-N-(4-((dimethylamino)(phenyl)methyl)cyclohexyl)acetamide] the same measures were 88%, -12% and 78%.
Turning to `CN(C)C(c1ccccc1)C1CCC(NC(=O)COC2CCN(S(=O)(=O)c3ccccc3)CC2)CC1` (stereo not drawn) [Example 257], the “5-HT (inhibition of reuptake of serotonin, % inhibition)” value in experiment [1] (test concentration of 10 μM) was 86%. Besides, the “B1R Ant. h [10 μM] % Inhibition” value in experiment [2] stood at 26%. The “μ (binding on the μ opioid receptor, % inhibition)” value in experiment [3] (test concentration of 1 μM) stood at 74%.
Consider `CN(C)C(c1ccccc1)C1CCC(NC(=O)COCc2c(N(C)S(=O)(=O)c3ccc(Cl)c(Cl)c3)sc3c2CCCC3)CC1` (stereo not drawn) [Example 369], for which the “5-HT (inhibition of reuptake of serotonin, % inhibition)” value in experiment [1] (test concentration of 10 μM) is recorded as 66%. In experiment [2], the “B1R Ant. h [10 μM] % Inhibition” value is given as 21%. The “μ (binding on the μ opioid receptor, % inhibition)” value in experiment [3] (test concentration of 1 μM) is 66%.
For `COc1cc(C)c(S(=O)(=O)N(C)CCOCC(=O)NC2CCC(C(c3ccc(F)cc3)N(C)C)CC2)c(C)c1C` (stereo not drawn) [Example 380], the “5-HT (inhibition of reuptake of serotonin, % inhibition)” value in experiment [1] (test concentration of 10 μM) was 81%. Also, the “B1R Ant. h [10 μM] % Inhibition” value in experiment [2] is given as 86%. Moreover, in experiment [3] (test concentration of 1 μM), the “μ (binding on the μ opioid receptor, % inhibition)” value is listed as 55%.
The like results for `Cc1cc(C)c(S(=O)(=O)N(C)CCOCC(=O)NCCC2CCC(C(c3cccs3)N(C)C)CC2)c(C)c1` (stereo not drawn) [Example 385] were, in that order, 93%, 15% and 59%.
Consider `Cc1cc(C)c(S(=O)(=O)N(C)CCOCC(=O)NCCC2CCC(C(c3ccc(F)cc3)N(C)C)CC2)c(C)c1` (stereo not drawn) [Example 417], for which the “5-HT (inhibition of reuptake of serotonin, % inhibition)” value in experiment [1] (test concentration of 10 μM) is 91%. The “B1R Ant. h [10 μM] % Inhibition” value in experiment [2] turned out to be 100%. Besides, the “μ (binding on the μ opioid receptor, % inhibition)” value in experiment [3] (test concentration of 1 μM) is recorded as 60%.
For `COc1cc(C)c(S(=O)(=O)N(C)CCOCC(=O)NCC2CCC(C(CCc3ccccc3)N(C)C)CC2)c(C)c1C` (stereo not drawn) [Example 453] the same measures were 89%, 97% and 46%.
For `CN(C)C(c1cccs1)C1CCC(CCNC(=O)COCCN(C)S(=O)(=O)c2c(F)c(F)c(F)c(F)c2F)CC1` (stereo not drawn) [Example 465] the same measures were 72%, −3% and 48%.
The like results for `COc1cc(C)c(S(=O)(=O)N(CCOCC(=O)NC2CCC(C(c3ccccc3)N(C)C)CC2)Cc2ccccc2)c(C)c1` (stereo not drawn) [Example 483] were, in that order, 65%, 34% and 38%.
Turning to `CN(C)C(c1ccccc1)C1CCC(NC(=O)COCCN(C)S(=O)(=O)c2c(Cl)cc(Cl)cc2Cl)CC1` (stereo not drawn) [Example 598, N-[4-(dimethylaminophenylmethyl)-cyclohexyl]-2-{2-[methyl-(2,4,6-trichlorobenzenesulfonyl)-amino]-ethoxy}-acetamide], in experiment [1] (setting [6]), the inhibition at 10 µM worked out at 75%. Further, in experiment [2], the “B1R Ant. h [10 μM] % Inhibition” value is given as 86%. Further, the inhibition at 1 µM in experiment [3] (setting [7]) is 91%.
For `CN(Cc1ccccc1)C(c1ccccc1)C1CCC(NC(=O)COCCN(C)S(=O)(=O)c2c(Cl)cc(Cl)cc2Cl)CC1` (stereo not drawn) [Example 599, N-{4-[(benzylmethylamino)-phenylmethyl]-cyclohexyl}-2-{2-[methyl-(2,4,6-trichlorobenzenesulfonyl)-amino]-ethoxy}-acetamide], the results for the inhibition at 10 µM in experiment [1] (setting [6]) and in experiment [2] were 33% and -6%, respectively. For the same compound, the inhibition at 1 µM in experiment [3] (setting [7]) was 91%.
For `CN(C)C(c1ccccc1)C1CCC(NC(=O)COCCN(C2CC2)S(=O)(=O)c2c(Cl)cc(Cl)cc2Cl)CC1` (stereo not drawn) [Example 600, 2-{2-[cyclopropyl-(2,4,6-trichlorobenzenesulfonyl)-amino]-ethoxy}-N-[4-(dimethylaminophenylmethyl)-cyclohexyl]-acetamide] the same measures were 60%, 101% and 95%.
The like results for `CN(CCOCC(=O)NC1CCC(C(c2ccccc2)N2CCCCC2)CC1)S(=O)(=O)c1c(Cl)cc(Cl)cc1Cl` (stereo not drawn) [Example 601, 2-{2-[methyl-(2,4,6-trichlorobenzenesulfonyl)-amino]-ethoxy}-N-[4-(phenylpiperidin-1-yl-methyl)-cyclohexyl]-acetamide] were, in that order, 75%, 78% and 45%.
With `O=C(COCCN(C1CC1)S(=O)(=O)c1c(Cl)cc(Cl)cc1Cl)NC1CCC(C(c2ccccc2)N2CCCCC2)CC1` (stereo not drawn) [Example 602, 2-{2-[cyclopropyl-(2,4,6-trichlorobenzenesulfonyl)-amino]-ethoxy}-N-[4-(phenylpiperidin-1-ylmethyl)-cyclohexyl]-acetamide], the inhibition at 10 µM in experiment [1] (setting [6]) was found to be 51%; in experiment [2], 81%. Moreover, in experiment [3] (setting [7]), the inhibition at 1 µM amounted to 55%.
